From paper PMC8026324, “In Vitro Antiplasmodial, Heme Polymerization, and Cytotoxicity of Hydroxyxanthone Derivatives” (Journal of Tropical Medicine, 2021)
Each block holds one compound with its values, some of them ahead of it.

Tests used:
[1] = tested on: Plasmodium falciparum 3D-7 (chloroquine-sensitive strain); assay: In vitro antiplasmodial activity assay, microscopic method, strain 3D-7; type: cell-based; conditions: for IC50: 72 hours incubation, microscopic method, read-out: IC50 on P. falciparum 3D-7; for antiplasmodial activity category on P. falciparum 3D-7: category by IC50
Procedure: (§1) The test of antiplasmodial activity began with the culture of P. falciparum 3D-7 and FCR-3 using the modified Trager and Jensen method. The plasmodium was cultured in human O red blood cells diluted to 3% haematocrit in RPMI 1640 medium complemented with 10% human O serum. The medium was made by adding 10.43 g of powder RPMI 1640, 6 g HEPES, 2 g NaHCO3, 25 mg gentamycin, and sterile distilled water up to 1 L. The medium pH was adjusted so that it reached ±7.2. It was sterilized using a 0.22 μm filter and stored at 4°C. The complete plasmodium culture medium was made by adding human serum with a concentration of 10% in the medium. The plasmodium culture was incubated in candle jar in an incubator with a temperature of 37°C and was observed every 24 hours.
(§2) The plasmodium was synchronized to obtain the ring stage by adding 5% of D-sorbitol. The plasmodium was transferred from culture flask to a conical tube, and then it was centrifuged with a speed of 1000 rpm for 10 minutes. After the supernatant was disposed, the sterile 5% sorbitol was added and incubated for 10 minutes at a temperature of 37°C. The plasmodium suspension was centrifuged again; the supernatant was disposed and the plasmodium was washed by adding culture medium. Then, the plasmodium suspension was centrifuged again, and the supernatant was discarded, resulting in a plasmodium in ring stage only. The parasitemia was calculated from a thin blood preparation. The test used 1% parasitemia at 2% haematocrit in RPMI medium which complemented with 10% human O serum.
(§3) Each testing compound was dissolved in RPMI medium. The testing compound in various concentrations with volume of 100 μL was incorporated into the 96-well microplate, and then 100 μL of Plasmodium suspension was added. Each series of concentrations was replicated three times. The microplate was incubated at a temperature of 37°C for 72 hours. At the end of the incubation, a thin blood smear was made using 10% Giemsa stain and observed under a light microscope at 1000x magnification. The percentage of parasitemia (counting a minimum of 1,000 erythrocytes) was calculated from the preparation of thin blood and then used to calculate the percentage of plasmodium growth inhibition. […] Antiplasmodial activity is expressed as IC50, which is the concentration of a compound that is required for 50% inhibition of plasmodium growth. The IC50 value was calculated by probit analysis using SPSS software (IBM Corp., Chicago). The lower the IC50 value obtained, the greater the antiplasmodial activity.

[2] = tested on: Plasmodium falciparum FCR-3 (chloroquine-resistant strain); assay: In vitro antiplasmodial activity assay, microscopic method, strain FCR-3; type: cell-based; conditions: for IC50: 72 hours incubation, microscopic method, read-out: IC50 on P. falciparum FCR-3; for antiplasmodial activity category on P. falciparum FCR-3: category by IC50
Procedure: as §1, §2, §3

Vero cells = assay: In vitro cytotoxicity test, MTT assay on Vero cell line; type: cell-based; conditions: for IC50: MTT assay; for Selectivity index 3D-7: ratio IC50 on Vero cell/IC50 on P. falciparum 3D-7; for Selectivity index FCR-3: ratio IC50 on Vero cell/IC50 on P. falciparum FCR-3
Procedure: The in vitro cytotoxicity test was conducted using the 3-(4,5-dimethylthiazol-2-yl)2,5-diphenyltetrazolium bromide (MTT) assay method on Vero cell line culture using the Anderson et al.'s modified method.
The cell was removed from the cryo medium. Then, the cell was thawed at 37°C. The liquid cell was subsequently transferred to the tube and a culture medium was added to a volume of 10 mL. Then, the suspension was centrifuged for 15 minutes so that it would form cell pellets. The supernatant was removed and 1 mL of culture medium was added to the cell pellets. Finally, the suspension was transferred to the Petri dish and incubated in the incubator with 5% of CO2 at 37°C.
The medium of Vero cell culture was removed, and then the cell was washed using a PBS solution with a volume of PBS ± 1/2 of the initial medium volume. This step was done twice and 1 mL of trypsin 0.25% was added. Subsequently, the cell was incubated in the CO2 incubator at 37°C for 3 minutes. Then, the cell was resuspended using 2 mL of culture medium and PBS solution was added up to 10 mL. The suspension was centrifuged for 15 minutes so that it formed pellets. Pellets were added with 1 mL of culture medium and resuspended. Take 10 μL of the cell suspension and density of cells was calculated.
Then, the cell was added with culture medium to 10 mL. A total of 100 μL of such suspensions was transferred into each well of the 96-well microplate, but three of the wells were emptied as medium controls. Subsequently, the microplate was incubated in a 5% CO2 incubator at 37°C.
Each hydroxyxanthone derivative compound was dissolved in DMSO, and a variety of concentrations were prepared in the medium. Each concentration of the testing compound was added into the 96-well microplate triplicately. Cell control and medium control were not given a testing compound solution. The medium control remained blank, while the cell control contained culture medium only. […] Then, the cell was incubated in a 5% CO2 incubator at 37°C for 24 hours.
After the cell was incubated for 24 hours, the medium was discarded and washed with PBS. Then, each well was added with 100 μL of 5 mg/mL of MTT solution. The 96-well microplate was incubated again in the incubator of CO2 at 37°C for 4 hours. Then, 100 μL of 10% of SDS in 0.01 MHCl was added. The cells were placed in a dark room at room temperature for 24 hours.
The absorbance was measured using the enzyme-linked immunosorbent assay (ELISA) reader at 595 nm wavelength. The cytotoxicity test on the Vero cells was done by calculating the percentage of Vero cell inhibition of the absorption value of the test compound, cell control, and medium control. The cytotoxic effect was expressed as IC50. The IC50 value was obtained from the probit analysis by using SPSS software (IBM Corp., Chicago). The degree of selectivity was expressed as a selectivity index. The selectivity index was obtained from the ratio between the IC50 cytotoxic effect on Vero cells and IC50 antiplasmodial activity on Plasmodium. A compound is said to be safe if the value of the selectivity index is >10 [20].

MCF-7 = tested on: MCF-7; set-up: method as in earlier work; conditions: cited from earlier work
WIDR = tested on: WIDR; set-up: method as in earlier work; conditions: cited from earlier work
Hela = tested on: Hela; set-up: method as in earlier work; conditions: cited from earlier work
[3] = Chlorocebus sabaeus, Vero, 24 h, 24 hours incubation

IC50 ([1]; Plasmodium falciparum): 46.69 ± 0.29 µM
IC50 ([2]; Plasmodium falciparum, FCR3): 59.7 ± 0.78 µM
Structure (SMILES): Cc1c(O)ccc2c(=O)c3c(O)cccc3oc12 [HX5, 1,6-dihydroxy-5-methylxanthone]
inhibition at 20.64 µM ([1]; Plasmodium falciparum, 20.64 μM, read-out: Growth inhibition of P. falciparum Strain 3D-7): 37.9 ± 0.441%
inhibition at 41.28 µM ([1]; Plasmodium falciparum, 41.28 μM, read-out: Growth inhibition of P. falciparum Strain 3D-7): 45 ± 0.563%
inhibition at 82.56 µM ([1]; Plasmodium falciparum, 82.56 μM, read-out: Growth inhibition of P. falciparum Strain 3D-7): 54.2 ± 1.57%
inhibition at 165.13 µM ([1]; Plasmodium falciparum, 165.13 μM, read-out: Growth inhibition of P. falciparum Strain 3D-7): 75.4 ± 1.29%
inhibition at 330.25 µM ([1]; Plasmodium falciparum, 330.25 μM, read-out: Growth inhibition of P. falciparum Strain 3D-7): 93.3 ± 0.956%
antiplasmodial activity category on P. falciparum 3D-7 [1]: moderate (moderate (IC50 20–100 μM))
inhibition at 20.64 µM ([2]; Plasmodium falciparum, FCR3, 20.64 μM, read-out: Growth inhibition of P. falciparum Strain FCR-3): 33.63 ± 0.327%
inhibition at 41.28 µM ([2]; Plasmodium falciparum, FCR3, 41.28 μM, read-out: Growth inhibition of P. falciparum Strain FCR-3): 41.14 ± 0.396%
inhibition at 82.56 µM ([2]; Plasmodium falciparum, FCR3, 82.56 μM, read-out: Growth inhibition of P. falciparum Strain FCR-3): 46.5 ± 0.816%
inhibition at 165.13 µM ([2]; Plasmodium falciparum, FCR3, 165.13 μM, read-out: Growth inhibition of P. falciparum Strain FCR-3): 73.5 ± 1.6%
inhibition at 330.25 µM ([2]; Plasmodium falciparum, FCR3, 330.25 μM, read-out: Growth inhibition of P. falciparum Strain FCR-3): 84.7 ± 0.902%
antiplasmodial activity category on P. falciparum FCR-3 [2]: moderate (moderate (IC50 20–100 μM))
IC50 (Vero cells; 24 hours incubation): 418 µM
IC50 (Vero cells; [3]): 459 µM
inhibition at 64.4 µM (Vero cells; Chlorocebus sabaeus, Vero, 24 h, 64.40 μM, read-out: Vero cell growth inhibition after 24 hours incubation): -5.19%
inhibition at 128.8 µM (Vero cells; Chlorocebus sabaeus, Vero, 24 h, 128.80 μM, read-out: Vero cell growth inhibition after 24 hours incubation): 27.9%
inhibition at 258.01 µM (Vero cells; Chlorocebus sabaeus, Vero, 24 h, 258.01 μM, read-out: Vero cell growth inhibition after 24 hours incubation): 37.8%
inhibition at 516.02 µM (Vero cells; Chlorocebus sabaeus, Vero, 24 h, 516.02 μM, read-out: Vero cell growth inhibition after 24 hours incubation): 48.3%
inhibition at 1032.03 µM (Vero cells; Chlorocebus sabaeus, Vero, 24 h, 1032.03 μM, read-out: Vero cell growth inhibition after 24 hours incubation): 68.1%
inhibition at 2064.07 µM (Vero cells; Chlorocebus sabaeus, Vero, 24 h, 2064.07 μM, read-out: Vero cell growth inhibition after 24 hours incubation): 88.8%
IC50 (Vero cells; Chlorocebus sabaeus, Vero): 111 µg/mL
Selectivity index 3D-7 (Vero cells): 8.94
Selectivity index FCR-3 (Vero cells): 6.99
cytotoxicity on MCF-7 (in words) (MCF-7): weak
cytotoxicity on WIDR (in words) (WIDR): weak
cytotoxicity on Hela (in words) (Hela): weak

IC50 ([1]; Plasmodium falciparum): 27.64 ± 0.19 µM
IC50 ([2]; Plasmodium falciparum, FCR3): 64.1 ± 5.08 µM
Structure (SMILES): O=c1c2ccc(O)c(O)c2oc2cccc(O)c12 [HX3, 1,5,6-trihydroxyxanthone]
inhibition at 25.59 µM ([1]; Plasmodium falciparum, 25.59 μM, read-out: Growth inhibition of P. falciparum Strain 3D-7): 47.3 ± 0.611%
inhibition at 51.19 µM ([1]; Plasmodium falciparum, 51.19 μM, read-out: Growth inhibition of P. falciparum Strain 3D-7): 63.4 ± 0.421%
inhibition at 102.38 µM ([1]; Plasmodium falciparum, 102.38 μM, read-out: Growth inhibition of P. falciparum Strain 3D-7): 68.89 ± 0.151%
inhibition at 204.75 µM ([1]; Plasmodium falciparum, 204.75 μM, read-out: Growth inhibition of P. falciparum Strain 3D-7): 80.92 ± 0.679%
inhibition at 409.5 µM ([1]; Plasmodium falciparum, 409.5 μM, read-out: Growth inhibition of P. falciparum Strain 3D-7): 87.4 ± 1.15%
antiplasmodial activity category on P. falciparum 3D-7 [1]: moderate (moderate (IC50 20–100 μM))
inhibition at 25.59 µM ([2]; Plasmodium falciparum, FCR3, 25.59 μM, read-out: Growth inhibition of P. falciparum Strain FCR-3): 38.3 ± 1.19%
inhibition at 51.19 µM ([2]; Plasmodium falciparum, FCR3, 51.19 μM, read-out: Growth inhibition of P. falciparum Strain FCR-3): 43.13 ± 0.126%
inhibition at 102.38 µM ([2]; Plasmodium falciparum, FCR3, 102.38 μM, read-out: Growth inhibition of P. falciparum Strain FCR-3): 51.92 ± 0.466%
inhibition at 204.75 µM ([2]; Plasmodium falciparum, FCR3, 204.75 μM, read-out: Growth inhibition of P. falciparum Strain FCR-3): 71.9 ± 7.84%
inhibition at 409.5 µM ([2]; Plasmodium falciparum, FCR3, 409.5 μM, read-out: Growth inhibition of P. falciparum Strain FCR-3): 83 ± 1.4%
antiplasmodial activity category on P. falciparum FCR-3 [2]: moderate (moderate (IC50 20–100 μM))
IC50 (Vero cells; 24 hours incubation): 224 µM
IC50 (Vero cells; [3]): 230 µM
inhibition at 63.88 µM (Vero cells; Chlorocebus sabaeus, Vero, 24 h, 63.88 μM, read-out: Vero cell growth inhibition after 24 hours incubation): 20.7%
inhibition at 127.76 µM (Vero cells; Chlorocebus sabaeus, Vero, 24 h, 127.76 μM, read-out: Vero cell growth inhibition after 24 hours incubation): 39.6%
inhibition at 255.94 µM (Vero cells; Chlorocebus sabaeus, Vero, 24 h, 255.94 μM, read-out: Vero cell growth inhibition after 24 hours incubation): 55.7%
inhibition at 511.88 µM (Vero cells; Chlorocebus sabaeus, Vero, 24 h, 511.88 μM, read-out: Vero cell growth inhibition after 24 hours incubation): 68%
inhibition at 1023.75 µM (Vero cells; Chlorocebus sabaeus, Vero, 24 h, 1023.75 μM, read-out: Vero cell growth inhibition after 24 hours incubation): 79.9%
inhibition at 2047.5 µM (Vero cells; Chlorocebus sabaeus, Vero, 24 h, 2047.50 μM, read-out: Vero cell growth inhibition after 24 hours incubation): 88.9%
IC50 (Vero cells; Chlorocebus sabaeus, Vero): 56.2 µg/mL
Selectivity index 3D-7 (Vero cells): 8.12
Selectivity index FCR-3 (Vero cells): 3.50
cytotoxicity on MCF-7 (in words) (MCF-7): weak
cytotoxicity on WIDR (in words) (WIDR): weak
cytotoxicity on Hela (in words) (Hela): weak
